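Grown in 96-well plates, cells were treated for 48 hours with each compound at five concentrations. Insufficient inhibition: endpoint recorded as highest concentration tested. Abbreviation: GI50, concentration required for 50% inhibition of growth.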 The source made the active and inactive calls. No stated cut-off is given here; in the data, active = GI50 up to about 1.1 µM and inactive = higher.
Legend:
Test in all cases: NCI-60 cell line screen, 48 h
BT-549 = test system: BT-549
MCF7 = test system: MCF7
DLD-1 = test system: DLD-1
LXFL 529 = test system: LXFL 529
XF498 = test system: XF498
HOP-18 = test system: HOP-18
RXF 631 = test system: RXF 631
M19-MEL = test system: M19-MEL
SNB-78 = test system: SNB-78

Measured: GI50

CC1(C)[C@@H]2C[C@H]1C(Cc1ccccc1C[C@H]1c3cc(-c4ccccn4)ncc3[C@H]3C[C@@H]1C3(C)C)c1cc(-c3ccccn3)ncc12 (some centres not stated)
active: BT-549 0.716 µM | MCF7 0.362 µM

COC(=O)c1ccc(/C=C2\N=C(C)OC2=O)cc1
inactive: DLD-1 > 100 µM | LXFL 529 > 100 µM | XF498 > 100 µM | HOP-18 > 100 µM | RXF 631 > 100 µM | M19-MEL > 100 µM

COC(=O)/C=C(\C)CCC1SC1(C)C (configuration not stated)
inactive: SNB-78 > 100 µM | DLD-1 > 100 µM | LXFL 529 > 100 µM | XF498 > 100 µM | HOP-18 > 100 µM | M19-MEL > 100 µM

COc1cccc(NC(=O)CC(=O)n2nc(-c3ccccc3)c(/N=N/c3ccc(Cl)cc3)c2-c2ccccc2)c1
inactive: BT-549 11.8 µM | MCF7 7.57 µM

CC(=O)OC1=C2CC3(C)OC(=O)CC(C)(C)C3=CC=C2C=C(C(C)C)C1=O (configuration not stated)
active: SNB-78 0.282 µM | DLD-1 0.203 µM | LXFL 529 0.157 µM | RXF 631 0.723 µM | M19-MEL 0.526 µM
inactive: HOP-18 1.16 µM

CC(=O)/N=C1/N(/C=C2\C(=O)Oc3ccccc3C2=O)C(=O)/C(=C/c2ccc(OC(C)=O)cc2)N1C
inactive: MCF7 > 100 µM

O=c1[nH]c(-c2ccccc2)nc2cc([N+](=O)[O-])c(/C(Cl)=C/c3ccccc3)cc12
inactive: SNB-78 35 µM | LXFL 529 16.4 µM | M19-MEL 37.8 µM

Cc1c2cccc-2ccc2c3ccccc3n(C(=O)c3ccc(Cl)cc3)c12
active: MCF7 0.479 µM
inactive: BT-549 > 100 µM

COc1ccc(/C(Cl)=C(\C=O)c2ccc(OC)cc2)cc1
inactive: SNB-78 > 100 µM | DLD-1 33.2 µM | LXFL 529 > 100 µM | HOP-18 63.8 µM | RXF 631 58.3 µM | M19-MEL 93.3 µM

S=C1SC(=N\c2ccccc2)/C(=N/c2ccccc2)N1c1ccccc1
inactive: BT-549 > 100 µM | MCF7 > 100 µM

CN(N)c1nc(N)c(C#N)c(C#N)c1C#N
inactive: BT-549 > 10 µM | MCF7 > 10 µM

CC(=O)OC/C=C\Cn1ncc(=O)[nH]c1=O
inactive: MCF7 13 µM

CC1OC(O)CC(OC(=O)c2ccccc2)C1OC(=O)c1ccccc1 (configuration not stated)
inactive: DLD-1 14.3 µM | LXFL 529 16.2 µM | XF498 19.9 µM | HOP-18 26.3 µM | M19-MEL 17.5 µM

O=C(O)C(Cc1ccc(O)cn1)NC(=O)C(F)(F)F (configuration not stated)
inactive: BT-549 > 100 µM | MCF7 > 100 µM

CN(C)C(=O)C1CCC(=C2C(=O)OC(C)(C)OC2=O)N1C (configuration not stated)
inactive: SNB-78 > 100 µM | DLD-1 > 100 µM | LXFL 529 > 100 µM | XF498 > 100 µM | HOP-18 > 100 µM | M19-MEL > 100 µM

O=C(c1ccco1)C1CC(c2c(O)ccc3ccccc23)=NN1 (configuration not stated)
inactive: BT-549 14.9 µM | MCF7 3.15 µM

CC(C)=CC(=O)OC1C2C(C)=CC(O)C(O)C2(C)C2C3(O)OCC24C(CC(=O)OC14)C(C)C3O (configuration not stated)
active: SNB-78 0.272 µM | DLD-1 0.0716 µM | MCF7 0.0269 µM | XF498 0.122 µM | HOP-18 1.11 µM | M19-MEL 0.034 µM

CN1C2CCC1CC(C)(O)C2 (configuration not stated)
inactive: BT-549 > 100 µM | MCF7 > 100 µM

CCOC(=O)/C=C1/Oc2ccccc2C1(C)O (configuration not stated)
inactive: SNB-78 > 100 µM | DLD-1 > 100 µM | LXFL 529 > 100 µM | HOP-18 > 100 µM | M19-MEL > 100 µM

CC(C)=C1C2CC3(C)CCC2(C)CCC13.CC1=CCC2C3(C)CCC2(C(C)C)C1C3 (configuration not stated)
inactive: BT-549 19.8 µM | MCF7 19 µM

O=CCCn1[nH]c(=O)ccc1=O
inactive: SNB-78 > 100 µM | DLD-1 > 100 µM | M19-MEL > 100 µM

COc1ccc(N[S+]([O-])c2ccc(-c3ccccc3)cc2)cc1 (configuration not stated)
inactive: MCF7 > 100 µM

COC(=O)C1(Cc2ccccc2)Cc2cc3c(cc2C1)CCC3
inactive: BT-549 35 µM | MCF7 15.5 µM

C/C(=N\O)C1CC(CC(=O)O)C1(C)C (configuration not stated)
inactive: BT-549 > 100 µM | MCF7 > 100 µM

COc1ccc(/C=C2\CC3C4CC=C5C[C@@H](O)CC[C@]5(C)C4CC[C@]3(C)\C2=N\O)cc1OC (some centres not stated)
inactive: BT-549 15.1 µM | MCF7 4.24 µM

COC(=O)[C@@H](NC(=O)[C@H](N)Cc1ccc(N(CCCl)CCCl)cc1)C(C)C
inactive: BT-549 23.4 µM | MCF7 12.5 µM

CSCC(CO)NC(=O)/C=C/c1c(C)[nH]c(=O)[nH]c1=O (configuration not stated)
inactive: SNB-78 > 853 µM | DLD-1 512 µM | MCF7 40.3 µM | XF498 311 µM | HOP-18 > 875 µM | M19-MEL 478 µM

Nc1n[nH]c(CCCCCCCc2nnc(N)[nH]2)n1
inactive: SNB-78 > 100 µM | DLD-1 > 100 µM | LXFL 529 > 100 µM | M19-MEL > 100 µM

CCN1C(=O)C(=Cc2ccc(-c3ccccc3)cc2)C(=O)N(CC)C1=S
inactive: BT-549 > 100 µM | MCF7 > 100 µM

N=c1c2c(=S)n(-c3ccccc3)c(=S)n(-c3ccccc3)c2nc(SCCCN2CCN(c3cccc(Cl)c3)CC2)n1-c1ccccc1
inactive: BT-549 > 100 µM | MCF7 53.2 µM

CNc1ccccc1-c1nc2ccccc2c(=O)o1
inactive: SNB-78 55.3 µM | DLD-1 > 100 µM | LXFL 529 > 100 µM | XF498 31 µM | HOP-18 > 100 µM | RXF 631 > 100 µM | M19-MEL > 100 µM

Source: ChEMBL document CHEMBL1201862, “PubChem BioAssay data set” (2004)
